The target in one test is CDK6/cyclin D1 (Homo sapiens, UniProt Q00534). The test can be described thus: Biochemical kinase inhibition test, CDK6/cyclin D1 (similar method). The protocol:
Potency determination of biochemical kinase inhibition test. Kinase activity test and IC50 determination. Firstly, 10 ng of recombinant CDK4/Cyclin D1 (Life Technologies PV4204) was diluted in kinase buffer (20 mM Tris pH 7.5, 10 mM MgCl2, 0.01% NP-40, 2 mM DTT), and was incubated with inhibitors at the indicated concentration at room temperature for 30 minutes. The kinase reaction was initiated by adding […] (1.5 μM) of recombinant retinoblastoma protein, 5 μM ATP and 10μ Ci γ-32P-ATP. The reaction was incubated at 30° C. for 20 minutes, and was terminated by adding 2× Laemmli sample buffer, heated at 95° C. for three minutes, and the resulting solution was dissolved with 12% acrylamide SDS-PAGE and autoradiographed. A densitometer (Bio-Rad) was used to quantify the corresponding phosphorylated substrate protein bands. The resulting density values were plotted as a function of the log drug concentration using Prism 4 Graphpad software. IC50 values were determined by plotting a non-linear regression curve with a variable slope.
The inhibitory activity of the compounds disclosed herein against CDK6/cyclin D1 was tested by a similar method.
The compounds were tested in a three-fold serial dilution from the starting concentration of 10 μM, over 10-fold of IC50. The control compound, staurosporine, was tested in a four-fold serial dilution from the starting concentration of 20 μM, over 10-fold of IC50. These reactions took place in the presence of 10 μM ATP.

The target in test [1] is T1, recombinant CDK4/Cyclin D1 (Homo sapiens, UniProt P11802).
T1 construct: purchased Life Technologies PV4204
The test can be described thus: Biochemical kinase inhibition test, CDK4/Cyclin D1 (32P-ATP, retinoblastoma protein substrate). The conditions noted are these: three-fold serial dilution from 10 μM; 10 μM ATP; read-out: CDK4/D1 (nM), enzyme inhibitory activity IC50.

Sequence of CDK6/cyclin D1 (Q00534 whole entry, species assumed): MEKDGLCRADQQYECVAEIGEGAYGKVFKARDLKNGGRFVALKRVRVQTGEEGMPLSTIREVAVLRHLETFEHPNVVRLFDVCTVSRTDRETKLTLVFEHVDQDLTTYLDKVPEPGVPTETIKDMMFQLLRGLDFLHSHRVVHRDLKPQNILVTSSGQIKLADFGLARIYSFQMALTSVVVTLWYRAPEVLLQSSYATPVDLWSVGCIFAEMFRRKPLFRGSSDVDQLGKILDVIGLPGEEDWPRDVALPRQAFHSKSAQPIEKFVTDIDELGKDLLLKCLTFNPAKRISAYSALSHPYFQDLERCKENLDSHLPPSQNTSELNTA
Sequence of CDK6/cyclin D1 (P24385 whole entry partner, species assumed): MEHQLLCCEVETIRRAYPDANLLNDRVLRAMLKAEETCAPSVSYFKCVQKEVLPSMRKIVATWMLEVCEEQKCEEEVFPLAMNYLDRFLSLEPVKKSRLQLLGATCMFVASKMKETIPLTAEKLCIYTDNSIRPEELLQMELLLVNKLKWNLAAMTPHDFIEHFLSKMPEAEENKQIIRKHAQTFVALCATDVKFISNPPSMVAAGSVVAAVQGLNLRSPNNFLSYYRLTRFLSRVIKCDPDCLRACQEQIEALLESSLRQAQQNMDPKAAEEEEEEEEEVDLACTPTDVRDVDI
T1 sequence (P11802 whole entry): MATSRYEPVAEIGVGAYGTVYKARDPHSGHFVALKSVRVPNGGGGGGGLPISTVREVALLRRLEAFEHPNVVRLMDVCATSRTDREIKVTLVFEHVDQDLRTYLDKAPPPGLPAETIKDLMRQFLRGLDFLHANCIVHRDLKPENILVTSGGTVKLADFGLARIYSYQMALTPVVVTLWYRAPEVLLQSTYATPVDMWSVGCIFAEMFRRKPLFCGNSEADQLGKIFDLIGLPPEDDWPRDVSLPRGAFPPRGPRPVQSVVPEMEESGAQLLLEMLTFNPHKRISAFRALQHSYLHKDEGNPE
T1 sequence (P24385 whole entry partner): as the sequence (P24385 whole entry partner, species assumed) above

As to `COc1cc(OC)cc(-c2cc3cnc(Nc4ccc(N5CCOCC5)cn4)nc3c3c2cnn3C(C)C)c1` [Compound I-82], the “selectivity for CDK6/cyclin D1 relative to CDK4/cyclin D1 (enzyme inhibitory activity)” value at CDK6/cyclin D1 (CDK6/cyclin D1 versus CDK4/cyclin D1) is recorded as “about 3 times”. In addition, the IC50 on CDK6/cyclin D1 (three-fold serial dilution from 10 μM, 10 μM ATP, read-out: CDK6/D1 (nM), enzyme inhibitory activity IC50) fell in the range of 1 to 5 nM; in test [1], 5 to 10 nM.
